Results published in PubChem BioAssay (NCI).
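These data come from cells grown in 96-well plates and exposed to compound for 48 hours at five concentrations. GI50 marks 50% less growth. Definition used: TGI = concentration required for complete inhibition of growth.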

How the values were obtained:
Experiment in all cases: inhibition of tumour cell growth, NCI panel, 48 h
786-0 renal = test system: 786-0 renal
HCT-116 colon = test system: HCT-116 colon
HCT-15 colon = test system: HCT-15 colon
HOP-62 NSCLC = test system: HOP-62 NSCLC
HS 578T breast = test system: HS 578T breast
HT29 colon = test system: HT29 colon
K-562 leukemia = test system: K-562 leukemia
NCI-H460 lung = test system: NCI-H460 lung
NCI-H522 lung = test system: NCI-H522 lung
SK-MEL-5 melanoma = test system: SK-MEL-5 melanoma

Row | SMILES | TGI (786-0 renal) | TGI (HCT-116 colon) | TGI (HCT-15 colon) | TGI (HOP-62 NSCLC) | TGI (HS 578T breast) | TGI (HT29 colon) | TGI (K-562 leukemia) | TGI (NCI-H460 lung) | TGI (NCI-H522 lung) | TGI (SK-MEL-5 melanoma) | GI50 (786-0 renal) | GI50 (HCT-116 colon) | GI50 (HCT-15 colon) | GI50 (HOP-62 NSCLC) | GI50 (HS 578T breast) | GI50 (HT29 colon) | GI50 (K-562 leukemia) | GI50 (NCI-H460 lung) | GI50 (NCI-H522 lung) | GI50 (SK-MEL-5 melanoma)
1 | CC(=O)OCc1ccc2c(c1)C(O)NC(=O)O2 (centres undefined) | > 100 µM | > 100 µM | > 100 µM | > 100 µM | > 100 µM | > 100 µM | > 100 µM | > 100 µM | > 100 µM | > 100 µM | – | – | – | – | – | – | – | – | – | –
2 | COc1c2ccccc2c(OC)c2[nH]c(=O)ccc12 | > 100 µM | > 100 µM | 4.53 µM | 3.72 µM | 20.7 µM | > 57 µM | > 100 µM | 4 µM | > 100 µM | 2.19 µM | 56.1 µM | 4.98 µM | 1.78 µM | 2.01 µM | 2.68 µM | 4.66 µM | 6.39 µM | 1.51 µM | 7.73 µM | 0.847 µM
3 | O=C1NC(=NCc2ccccc2)S/C1=C\c1ccc2ncccc2c1 | > 25 µM | > 25 µM | > 25 µM | > 25 µM | > 25 µM | > 25 µM | > 25 µM | > 25 µM | > 25 µM | > 25 µM | > 25 µM | > 20.7 µM | > 25 µM | > 25 µM | > 25 µM | > 25 µM | > 25 µM | > 25 µM | > 15.5 µM | > 25 µM
4 | COC(=O)/C=C/c1cc(OC(C)=O)c2c(c1)[C@@H](C(=O)OC)[C@H](c1ccc(OC(C)=O)c(OC(C)=O)c1)O2 | > 100 µM | > 59.9 µM | > 100 µM | 63.9 µM | 17.7 µM | > 58.7 µM | > 49.2 µM | 15 µM | 2.13 µM | 2.34 µM | 0.0958 µM | 0.0485 µM | 0.0421 µM | 0.0779 µM | 0.0343 µM | 1.68 µM | 0.0378 µM | 0.299 µM | 0.0348 µM | 0.0493 µM
5 | CN1CCN(C(=O)COc2ccc(C34CC5CC(CC(C5)C3)C4)cc2)CC1 | 23.5 µM | 26.9 µM | 21 µM | 32.5 µM | 45.6 µM | 19.1 µM | 46.5 µM | 27.5 µM | 33.4 µM | 22.7 µM | 11.3 µM | 13.9 µM | 7.33 µM | 14.5 µM | 15.6 µM | 4.66 µM | 4.38 µM | 13.2 µM | 15 µM | 10.3 µM
6 | COc1ccc2ncnc(Nc3ccc(OCc4ccccc4)cc3)c2c1 | 10.9 µM | > 25 µM | > 25 µM | > 25 µM | > 25 µM | > 25 µM | > 25 µM | > 25 µM | > 17.1 µM | 11.8 µM | 4.76 µM | 8.35 µM | 5.61 µM | 10.6 µM | 10.2 µM | 6.54 µM | 9.01 µM | 7.58 µM | 4.95 µM | 4.62 µM
7 | COc1cc2c(cc1OC)C(Cl)C(c1ccc(F)cc1)=C2Cl (centres undefined) | 24.8 µM | 25.6 µM | 28.4 µM | 30.1 µM | > 100 µM | 32.5 µM | 44.6 µM | 24.8 µM | 21.8 µM | 27.4 µM | – | – | – | – | – | – | – | – | – | –
8 | COc1cc2c(cc1OC)-c1cc(OC)c(OC)cc1C(CN(C)C)C2 (centres undefined) | > 10 µM | > 10 µM | > 10 µM | > 10 µM | > 10 µM | > 10 µM | > 10 µM | > 10 µM | > 10 µM | > 10 µM | > 10 µM | > 10 µM | > 10 µM | > 10 µM | 7.27 µM | > 10 µM | > 10 µM | > 10 µM | > 10 µM | > 10 µM
9 | O=C(NC1CCCCC1)NS(=O)(=O)c1ccc(N2N=C3c4ccccc4CC3C2c2ccc(Cl)cc2)cc1 (centres undefined) | 26.3 µM | 18.6 µM | 43.7 µM | 30.9 µM | 37.2 µM | > 100 µM | 22.4 µM | 30.6 µM | 30.9 µM | 18.3 µM | 13.3 µM | 5.15 µM | 14.5 µM | 15 µM | 4.61 µM | 32.5 µM | 6.71 µM | 4.45 µM | 9.43 µM | 3.69 µM
10 | c1ccc(-c2n(Cc3ccc4ccccc4n3)cc[n+]2Cc2ccc3ccccc3c2)cc1 | 6.12 µM | 3.37 µM | 17.9 µM | 6.13 µM | 6.31 µM | 4.59 µM | 4.36 µM | 5.8 µM | 3.42 µM | 1.55 µM | 2.24 µM | 1.24 µM | 5.21 µM | 2.01 µM | 1.94 µM | 0.979 µM | 0.427 µM | 1.79 µM | 0.706 µM | 0.538 µM
11 | C=C1C[C@H](O)[C@H](Br)C(C)(C)[C@@]12CCC(C)=C(Cl)C2 | 11.7 µM | – | 1.27 µM | 4.92 µM | 2.98 µM | 1.45 µM | 10.4 µM | 1.61 µM | 3.46 µM | 0.866 µM | 0.57 µM | 0.32 µM | 0.269 µM | 0.377 µM | 0.289 µM | 0.26 µM | 0.443 µM | 0.263 µM | 0.416 µM | 0.253 µM
